According to the NIST ThermoML archive (doi:10.1021/je060170c):

Assay: xn = mol fraction of the nth substance listed
Conditions: 101 kPa, Liquid; for viscosity: Anton Paar Stabinger viscometer

COc1ccccc1 [anisole] + Cc1cccc(C)c1
Conditions | mass density [kg/m3] | speed of sound [m/s] | viscosity [mPa·s]
288.15 K, x1 = 0.1144 | 882.011 | 1369.2 | 0.696
288.15 K, x1 = 0.2566 | 899.519 | 1380.5 | 0.745
288.15 K, x1 = 0.3821 | 915.327 | 1390.9 | 0.799
288.15 K, x1 = 0.5034 | 930.924 | 1401 | 0.856
288.15 K, x1 = 0.6546 | 950.873 | 1414.1 | 0.933
288.15 K, x1 = 0.7535 | 964.193 | 1424 | 0.995
288.15 K, x1 = 0.8432 | 976.464 | 1432 | 1.049
288.15 K, x1 = 0.9133 | 986.213 | 1439.3 | 1.103
288.15 K, x1 = 0.9576 | 992.455 | 1445.2 | 1.149
288.15 K, x1 = 1 | 998.44 | 1449.1 | 1.188
293.15 K, x1 = 0.1144 | 877.742 | 1351 | 0.645
293.15 K, x1 = 0.2566 | 895.185 | 1362.2 | 0.688
293.15 K, x1 = 0.3821 | 910.905 | 1372.1 | 0.734
293.15 K, x1 = 0.5034 | 926.441 | 1381.4 | 0.783
293.15 K, x1 = 0.6546 | 946.321 | 1393.9 | 0.851
293.15 K, x1 = 0.7535 | 959.605 | 1402.8 | 0.908
293.15 K, x1 = 0.8432 | 971.843 | 1411.1 | 0.958
293.15 K, x1 = 0.9133 | 981.575 | 1418.4 | 1.008
293.15 K, x1 = 0.9576 | 987.755 | 1423.6 | 1.051
293.15 K, x1 = 1 | 993.651 | 1428.5 | 1.084
298.15 K, x1 = 0.1144 | 873.473 | 1328.5 | 0.607
298.15 K, x1 = 0.2566 | 890.874 | 1339.2 | 0.647
298.15 K, x1 = 0.3821 | 906.561 | 1349.8 | 0.687
298.15 K, x1 = 0.5034 | 922.056 | 1360.1 | 0.734
298.15 K, x1 = 0.6546 | 941.9 | 1373.5 | 0.798
298.15 K, x1 = 0.7535 | 955.192 | 1382.5 | 0.852
298.15 K, x1 = 0.8432 | 967.423 | 1391 | 0.899
298.15 K, x1 = 0.9133 | 977.136 | 1398.1 | 0.947
298.15 K, x1 = 0.9576 | 983.283 | 1403.1 | 0.988
298.15 K, x1 = 1 | 989.15 | 1408 | 1.017
303.15 K, x1 = 0.1144 | 869.172 | 1308 | 0.574
303.15 K, x1 = 0.2566 | 886.499 | 1318.7 | 0.604
303.15 K, x1 = 0.3821 | 902.126 | 1328.8 | 0.639
303.15 K, x1 = 0.5034 | 917.578 | 1339.1 | 0.677
303.15 K, x1 = 0.6546 | 937.368 | 1352.6 | 0.733
303.15 K, x1 = 0.7535 | 950.619 | 1362 | 0.782
303.15 K, x1 = 0.8432 | 962.844 | 1371 | 0.824
303.15 K, x1 = 0.9133 | 972.502 | 1378.3 | 0.868
303.15 K, x1 = 0.9576 | 978.641 | 1383.1 | 0.905
303.15 K, x1 = 1 | 984.372 | 1387.7 | 0.931

COc1ccccc1 [anisole] + Cc1ccccc1
Conditions | mass density [kg/m3] | speed of sound [m/s] | viscosity [mPa·s]
288.15 K, x1 = 0.1152 | 886.478 | 1360.7 | 0.676
288.15 K, x1 = 0.2132 | 899.203 | 1369.9 | 0.725
288.15 K, x1 = 0.3098 | 911.684 | 1379.1 | 0.77
288.15 K, x1 = 0.4182 | 925.577 | 1389.6 | 0.832
288.15 K, x1 = 0.5267 | 939.392 | 1400.4 | 0.891
288.15 K, x1 = 0.6209 | 951.306 | 1410 | 0.94
288.15 K, x1 = 0.7382 | 966.034 | 1421.9 | 1.014
288.15 K, x1 = 0.8645 | 981.766 | 1434.9 | 1.094
288.15 K, x1 = 0.927 | 989.474 | 1441.5 | 1.138
288.15 K, x1 = 1 | 998.441 | 1449.1 | 1.188
293.15 K, x1 = 0.1152 | 881.927 | 1339.1 | 0.628
293.15 K, x1 = 0.2132 | 894.629 | 1347.9 | 0.671
293.15 K, x1 = 0.3098 | 907.078 | 1357.9 | 0.71
293.15 K, x1 = 0.4182 | 920.94 | 1367.2 | 0.765
293.15 K, x1 = 0.5267 | 934.732 | 1377.6 | 0.818
293.15 K, x1 = 0.6209 | 946.626 | 1387.6 | 0.861
293.15 K, x1 = 0.7382 | 961.327 | 1398.7 | 0.927
293.15 K, x1 = 0.8645 | 977.029 | 1412.5 | 0.999
293.15 K, x1 = 0.927 | 984.734 | 1418.9 | 1.039
293.15 K, x1 = 1 | 993.653 | 1428.5 | 1.084
298.15 K, x1 = 0.1152 | 877.272 | 1316.5 | 0.594
298.15 K, x1 = 0.2132 | 889.988 | 1325.8 | 0.634
298.15 K, x1 = 0.3098 | 902.448 | 1335 | 0.67
298.15 K, x1 = 0.4182 | – | 1345.3 | 0.721
298.15 K, x1 = 0.5267 | 930.133 | 1356.5 | 0.769
298.15 K, x1 = 0.6209 | 942.044 | 1366.3 | 0.809
298.15 K, x1 = 0.7382 | 956.777 | 1378.8 | 0.871
298.15 K, x1 = 0.8645 | 972.508 | 1392.7 | 0.94
298.15 K, x1 = 0.927 | 980.221 | 1399.6 | 0.977
298.15 K, x1 = 1 | 989.15 | 1408 | 1.017
303.15 K, x1 = 0.1152 | 872.541 | 1295.1 | 0.557
303.15 K, x1 = 0.2132 | 885.247 | 1304.8 | 0.592
303.15 K, x1 = 0.3098 | 897.698 | 1314.4 | 0.623
303.15 K, x1 = 0.4182 | 911.571 | 1325.3 | 0.667
303.15 K, x1 = 0.5267 | 925.369 | 1336.5 | 0.709
303.15 K, x1 = 0.6209 | 937.281 | 1346.4 | 0.745
303.15 K, x1 = 0.7382 | 952.012 | 1358.8 | 0.802
303.15 K, x1 = 0.8645 | 967.753 | 1372.5 | 0.862
303.15 K, x1 = 0.927 | 975.465 | 1379.4 | 0.895
303.15 K, x1 = 1 | 984.374 | 1387.7 | 0.931

COc1ccccc1 [anisole] + Cc1ccccc1C
Conditions | mass density [kg/m3] | speed of sound [m/s] | viscosity [mPa·s]
288.15 K, x1 = 0.0915 | 893.348 | 1395 | 0.885
288.15 K, x1 = 0.198 | 905.888 | 1402.3 | 0.914
288.15 K, x1 = 0.368 | 924.439 | 1409 | 0.944
288.15 K, x1 = 0.4954 | 938.936 | 1415.7 | 0.979
288.15 K, x1 = 0.6554 | 957.421 | 1424.7 | 1.028
288.15 K, x1 = 0.766 | 970.279 | 1431.2 | 1.066
288.15 K, x1 = 0.868 | 982.607 | 1439.4 | 1.133
288.15 K, x1 = 0.916 | 988.769 | 1444.5 | 1.159
288.15 K, x1 = 0.949 | 992.756 | 1447.1 | 1.172
288.15 K, x1 = 1 | 998.44 | 1449.1 | 1.188
293.15 K, x1 = 0.0915 | 889.076 | 1374.4 | 0.821
293.15 K, x1 = 0.198 | 900.83 | 1381.7 | 0.844
293.15 K, x1 = 0.368 | 919.973 | 1388.3 | 0.868
293.15 K, x1 = 0.4954 | 934.513 | 1394.9 | 0.899
293.15 K, x1 = 0.6554 | 953.102 | 1403.9 | 0.942
293.15 K, x1 = 0.766 | 966.072 | 1410.4 | 0.975
293.15 K, x1 = 0.868 | 978.09 | 1418.6 | 1.035
293.15 K, x1 = 0.916 | 983.748 | 1424 | 1.058
293.15 K, x1 = 0.949 | 987.635 | 1426.6 | 1.072
293.15 K, x1 = 1 | 993.649 | 1428.5 | 1.084
298.15 K, x1 = 0.0915 | 885.509 | 1354 | 0.769
298.15 K, x1 = 0.198 | 897.159 | 1359.5 | 0.79
298.15 K, x1 = 0.368 | 916.136 | 1368.6 | 0.813
298.15 K, x1 = 0.4954 | 930.569 | 1375.7 | 0.841
298.15 K, x1 = 0.6554 | 948.998 | 1385.1 | 0.881
298.15 K, x1 = 0.766 | 961.882 | 1391.9 | 0.914
298.15 K, x1 = 0.868 | 973.792 | 1398.6 | 0.974
298.15 K, x1 = 0.916 | 979.418 | 1402 | 0.996
298.15 K, x1 = 0.949 | 983.27 | 1404.3 | 1.005
298.15 K, x1 = 1 | 989.104 | 1408 | 1.017
303.15 K, x1 = 0.0915 | 880.756 | 1333.4 | 0.718
303.15 K, x1 = 0.198 | 892.435 | 1339.3 | 0.735
303.15 K, x1 = 0.368 | 911.407 | 1348.8 | 0.753
303.15 K, x1 = 0.4954 | 925.824 | 1355.9 | 0.776
303.15 K, x1 = 0.6554 | 944.269 | 1365.2 | 0.811
303.15 K, x1 = 0.766 | 957.177 | 1371.8 | 0.84
303.15 K, x1 = 0.868 | 969.125 | 1378.1 | 0.893
303.15 K, x1 = 0.916 | 974.761 | 1381.2 | 0.912
303.15 K, x1 = 0.949 | 978.63 | 1383.3 | 0.922
303.15 K, x1 = 1 | 984.372 | 1386.7 | 0.931
